Experimental data: US20170333112A1, “Optimizing Total Energy Delivered in Nanosecond Pulses for Triggering Apoptosis in Cultured Cells” (Pulse Biosciences, Inc., priority 2016, published 2017)

Tests used:
[1] = tested on: McA-RH7777 cells; experiment: ATP released from cells after treatment (FIG. 10); type: cell-based, rat
From the text: (§1) FIG. 10 includes charts showing ATP released from MCA205, McA-RH7777, and Jurkat E6-1 cells at different numbers of pulses.

[2] = tested on: MCA205 cells; experiment: ATP released from cells after treatment (FIG. 10); type: cell-based, murine
From the text: as §1

[3] = higher concentration (100 μM), rank among treatment groups (NPS 15 J/mL highest)
[4] = both high and low concentrations (4 and 10 μM)

| Structure (SMILES) | ATP released [1, 3] | ATP levels compared with untreated cells ([2]; 100 μM) | ATP released [2, 3] | ATP released [1, 4] | ATP released [2, 4] |
| --- | --- | --- | --- | --- | --- |
| COc1cccc2c1C(=O)c1c(O)c3c(c(O)c1C2=O)C[C@@](O)(C(=O)CO)C[C@@H]3O[C@H]1C[C@H](N)[C@H](O)[C@H](C)O1 [doxorubicin] | second highest amount of ATP | significantly higher | second highest amount of ATP |  |  |
| O=C1c2c(O)ccc(O)c2C(=O)c2c(NCCNCCO)ccc(NCCNCCO)c21 [mitoxantrone] |  |  |  | comparatively small amount ATP | comparatively small amount ATP |
